One assay addresses T1, USP7 (Homo sapiens, UniProt Q93009).
T1 construct: The USP7 construct was PCR amplified and cloned into a pFLAG-CMV-6a vector (Sigma-Aldrich) with an N-terminal FLAG tag; made in house; host or cells: HEK293T
In words: USP7 biochemical IC50 assay (fluorescence polarisation, TAMRA labelled peptide linked to ubiquitin via an iso-peptide bond). The note with it: 30 min pre-incubation of enzyme and compound, read after 2 hr incubation at room temperature, read-out: IC50 range. The gist of the method: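 Fluorescence polarisation at 540 nm excitation/590 nm emission, read immediately and after 2 hr at room temperature, following addition of 50 nM TAMRA-labelled iso-peptide ubiquitin substrate.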
T1 sequence (Q93009 whole entry): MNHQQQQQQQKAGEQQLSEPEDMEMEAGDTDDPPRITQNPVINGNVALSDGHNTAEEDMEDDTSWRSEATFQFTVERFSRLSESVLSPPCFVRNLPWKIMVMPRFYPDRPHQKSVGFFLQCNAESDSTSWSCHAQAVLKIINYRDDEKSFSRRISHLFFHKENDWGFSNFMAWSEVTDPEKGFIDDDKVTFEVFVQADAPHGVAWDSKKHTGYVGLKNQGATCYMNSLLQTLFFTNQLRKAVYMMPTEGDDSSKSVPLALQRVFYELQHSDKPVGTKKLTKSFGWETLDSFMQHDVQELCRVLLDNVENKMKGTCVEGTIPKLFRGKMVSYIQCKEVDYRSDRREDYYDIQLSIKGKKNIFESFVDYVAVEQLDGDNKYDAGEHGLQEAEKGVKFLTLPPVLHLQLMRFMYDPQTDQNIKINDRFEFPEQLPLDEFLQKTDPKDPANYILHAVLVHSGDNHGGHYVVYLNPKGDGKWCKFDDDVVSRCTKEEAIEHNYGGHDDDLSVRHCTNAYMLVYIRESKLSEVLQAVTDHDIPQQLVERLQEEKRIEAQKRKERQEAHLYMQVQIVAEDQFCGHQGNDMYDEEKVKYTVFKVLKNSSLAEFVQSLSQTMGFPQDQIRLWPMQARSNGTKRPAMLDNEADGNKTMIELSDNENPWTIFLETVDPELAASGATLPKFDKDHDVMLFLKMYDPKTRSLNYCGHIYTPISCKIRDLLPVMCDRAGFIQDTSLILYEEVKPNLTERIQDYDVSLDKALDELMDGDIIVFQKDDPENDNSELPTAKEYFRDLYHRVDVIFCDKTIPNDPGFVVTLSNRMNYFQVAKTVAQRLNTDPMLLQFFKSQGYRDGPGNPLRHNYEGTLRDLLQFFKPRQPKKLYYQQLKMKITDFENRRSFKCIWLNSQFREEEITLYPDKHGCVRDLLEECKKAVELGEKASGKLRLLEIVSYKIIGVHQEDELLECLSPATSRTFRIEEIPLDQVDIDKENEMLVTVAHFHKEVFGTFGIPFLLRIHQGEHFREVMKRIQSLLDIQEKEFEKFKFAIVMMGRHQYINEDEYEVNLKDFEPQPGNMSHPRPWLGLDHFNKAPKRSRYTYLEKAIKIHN
In general, IC50 refers to the point on the concentration scale where inhibition reaches its midpoint. For the compound `Cc1[nH]ncc1-c1nc2c(c(N3CCCC3C(N)=O)n1)CN(C#N)C2` (centres unmarked) [Example 144, 1-(6-cyano-2-(5-methyl-1H-pyrazol-4-yl)-6,7-dihydro-5H-pyrrolo[3,4-d]pyrimidin-4-yl)pyrrolidine-2-carboxamide], the IC50 was 10 to 30 µM.
Take `N#CN1Cc2nc(-c3cn[nH]c3)nc(N3CCc4ccccc4C3)c2C1` [Example 145, 4-(3,4-dihydroisoquinolin-2(1H)-yl)-2-(1H-pyrazol-4-yl)-5,7-dihydro-6H-pyrrolo[3,4-d]pyrimidine-6-carbonitrile]: the IC50 was 1 to 10 µM.
Regarding `COCCn1cc(-c2nc3c(c(N4CCc5ccccc5C4)n2)CN(C#N)C3)cn1` [Example 146], the IC50 was < 1 µM.
Take `Cc1[nH]ncc1-c1nc2c(c(N3CCc4cccnc4C3)n1)CN(C#N)C2` [Example 147, 4-(5,8-dihydro-1,7-naphthyridin-7(6H)-yl)-2-(5-methyl-1H-pyrazol-4-yl)-5,7-dihydro-6H-pyrrolo[3,4-d]pyrimidine-6-carbonitrile]: the concentration for half-maximal inhibition (IC50) was 1 to 10 µM.
Take `CC(=O)Nc1nc2c(c(N3CCCC3)n1)CN(C#N)C2` [Example 148, N-(6-cyano-4-(pyrrolidin-1-yl)-6,7-dihydro-5H-pyrrolo[3,4-d]pyrimidin-2-yl)acetamide]: the IC50 is 10 to 30 µM.
With `N#CN1Cc2nc(Cl)nc(-c3ccc(F)cc3)c2C1` [Example 149, 2-chloro-4-(4-fluorophenyl)-5,7-dihydro-6H-pyrrolo[3,4-d]pyrimidine-6-carbonitrile], the IC50 was in the range of 10 to 30 µM.
Same read-out and setting: then `N#CN1Cc2nc(Cl)nc(-c3ccccc3F)c2C1` [Example 150, 2-chloro-4-(2-fluorophenyl)-5,7-dihydro-6H-pyrrolo[3,4-d]pyrimidine-6-carbonitrile], with 30 to 100 µM; and `Cc1nc2c(c(-c3ccc(F)cc3)n1)CN(C#N)C2` [Example 151, 4-(4-fluorophenyl)-2-methyl-5,7-dihydro-6H-pyrrolo[3,4-d]pyrimidine-6-carbonitrile], with 1 to 10 µM.
Consider `N#CN1Cc2cccc(-c3ccccc3C(=O)N3CCCC3)c2C1` [Example 155, 4-(2-(pyrrolidine-1-carbonyl)phenyl)isoindoline-2-carbonitrile], for which the IC50 fell in the range of 10 to 30 µM.
In the case of `Cc1cc(-c2cccc3c2CN(C#N)C3)c(C(N)=O)cc1C#N` [Example 156, 5-cyano-2-(2-cyanoisoindolin-4-yl)-4-methylbenzamide], the IC50 lay within 1 to 10 µM.
With `N#CN1Cc2cccc(-c3ccccc3C(N)=O)c2C1` [Example 157, 2-(2-cyanoisoindolin-4-yl)benzamide], the IC50 is 1 to 10 µM.
As to `N#CN1Cc2cccc(-c3ccc(F)cc3C(N)=O)c2C1` [Example 158, 2-(2-cyanoisoindolin-4-yl)-5-fluorobenzamide], the IC50 was in the range of 1 to 10 µM.
Same read-out and setting: then `CC(=O)c1ccccc1-c1cccc2c1CN(C#N)C2` [Example 159, 4-(2-acetylphenyl)isoindoline-2-carbonitrile], with 1 to 10 µM.
The same measure, in the same setting: then `CNS(=O)(=O)c1ccccc1-c1cccc2c1CN(C#N)C2` [Example 160, 2-(2-cyanoisoindolin-4-yl)-N-methylbenzenesulfonamide], with 1 to 10 µM; and `N#CN1Cc2cccc(-c3ccccc3S(N)(=O)=O)c2C1` [Example 161, 2-(2-cyanoisoindolin-4-yl)benzenesulfonamide], with 1 to 10 µM; and `CS(=O)(=O)c1ccccc1-c1cccc2c1CN(C#N)C2` [Example 162, 4-(2-(methylsulfonyl)phenyl)isoindoline-2-carbonitrile], with 1 to 10 µM.
On to `CN1CCC[C@@H](C(=O)Nc2cc3c(c(-c4ccncc4)c2)CN(C#N)C3)C1` [Example 163, (R)-N-(2-cyano-7-(pyridin-4-yl)isoindolin-5-yl)-1-methylpiperidine-3-carboxamide], for which the IC50 was in the range of 1 to 10 µM.
Consider `CN1CCC[C@@H](C(=O)Nc2cc3c(c(-c4cccnc4)c2)CN(C#N)C3)C1` [Example 164, (R)-N-(2-cyano-7-(pyridin-3-yl)isoindolin-5-yl)-1-methylpiperidine-3-carboxamide], for which the IC50 fell in the range of 1 to 10 µM.
`N#CN1Cc2cccc(-c3cccc4c3NC(=O)C4)c2C1` [Example 165, 4-(2-oxoindolin-7-yl)isoindoline-2-carbonitrile]: the IC50 was 1 to 10 µM.
For the compound `N#Cc1ccccc1-c1cccc2c1CN(C#N)C2` [Example 166, 4-(2-cyanophenyl)isoindoline-2-carbonitrile], the IC50 lay within 1 to 10 µM.
For the compound `N#Cc1cc(F)ccc1-c1cccc2c1CN(C#N)C2` [Example 167, 4-(2-cyano-4-fluorophenyl)isoindoline-2-carbonitrile], the IC50 is 1 to 10 µM.
The same measure, in the same setting: the result for `N#Cc1cccc(F)c1-c1cccc2c1CN(C#N)C2` [Example 168, 4-(2-cyano-6-fluorophenyl)isoindoline-2-carbonitrile] reads 1 to 10 µM; that for `N#Cc1cc(Cl)ccc1-c1cccc2c1CN(C#N)C2` [Example 169, 4-(4-chloro-2-cyanophenyl)isoindoline-2-carbonitrile], 1 to 10 µM.
Turning to `COc1cccc(-c2cccc3c2CN(C#N)C3)c1C#N` [Example 170, 4-(2-cyano-3-methoxyphenyl)isoindoline-2-carbonitrile], the IC50 fell in the range of 1 to 10 µM.
On to `COc1ccc(-c2cccc3c2CN(C#N)C3)c(C#N)c1` [Example 171, 4-(2-cyano-4-methoxyphenyl)isoindoline-2-carbonitrile], for which the concentration for half-maximal inhibition (IC50) was 1 to 10 µM.
Same read-out and setting: the result for `COc1ccc(C#N)c(-c2cccc3c2CN(C#N)C3)c1` [Example 172, 4-(2-cyano-5-methoxyphenyl)isoindoline-2-carbonitrile] reads 1 to 10 µM.
Same read-out and setting: the result for `COc1ccc(C#N)c(-c2cccc3c2CN(C#N)C3)n1` [Example 173, 4-(3-cyano-6-methoxypyridin-2-yl)isoindoline-2-carbonitrile] reads 10 to 30 µM; that for `CN(C)S(=O)(=O)c1ccccc1-c1cccc2c1CN(C#N)C2` [Example 174, 2-(2-cyanoisoindolin-4-yl)-N,N-dimethylbenzenesulfonamide], 1 to 10 µM.
On the same count and under the same terms, then `CCNS(=O)(=O)c1ccccc1-c1cccc2c1CN(C#N)C2` [Example 175, 2-(2-cyanoisoindolin-4-yl)-N-ethylbenzenesulfonamide], with 1 to 10 µM; and `N#Cc1ccc(-c2cccc3c2CN(C#N)C3)c2c1CCC2=O` [Example 176, 4-(7-cyano-3-oxo-2,3-dihydro-1H-inden-4-yl)isoindoline-2-carbonitrile], with 1 to 10 µM.
Consider `N#Cc1ccc(-c2cccc3c2CN(C#N)C3)c(C(F)(F)F)c1` [Example 177, 4-(4-cyano-2-(trifluoromethyl)phenyl)isoindoline-2-carbonitrile], for which the IC50 lay in the range of 1 to 10 µM.
For the compound `N#CN1Cc2cccc(-c3ccccc3S(=O)(=O)N3CCC3)c2C1` [Example 178, 4-(2-(azetidin-1-ylsulfonyl)phenyl)isoindoline-2-carbonitrile], the IC50 fell in the range of 1 to 10 µM.
With `N#CN1Cc2cccc(-c3ccccc3S(=O)(=O)NCCO)c2C1` [Example 179, 2-(2-cyanoisoindolin-4-yl)-N-(2-hydroxyethyl)benzenesulfonamide], the IC50 lay in the range of 1 to 10 µM.
Consider `N#CN1Cc2cccc(-c3ccccc3C(=O)NCCn3cnccc3=O)c2C1` [Example 180, 2-(2-cyanoisoindolin-4-yl)-N-(2-(6-oxopyrimidin-1(6H)-yl)ethyl)benzamide], for which the IC50 was 1 to 10 µM.
Consider `N#Cc1cc(-n2ccnc2)ccc1-c1cccc2c1CN(C#N)C2` [Example 181, 4-(2-cyano-4-(1H-imidazol-1-yl)phenyl)isoindoline-2-carbonitrile], for which the IC50 lay in the range of 1 to 10 µM.
With `COc1cccc(-c2nnc(-c3cnn(C)c3)c3c2CN(C#N)C3)c1` [Example 182, 1-(3-methoxyphenyl)-4-(1-methyl-1H-pyrazol-4-yl)-5,7-dihydro-6H-pyrrolo[3,4-d]pyridazine-6-carbonitrile], the concentration for half-maximal inhibition (IC50) was in the range of 1 to 10 µM.
For the compound `N#CN1Cc2ncnc(N3CCc4ccccc4C3)c2C1` [Example 183, 4-(3,4-dihydroisoquinolin-2(1H)-yl)-5,7-dihydro-6H-pyrrolo[3,4-c]pyrimidine-6-carbonitrile], the IC50 is 1 to 10 µM.
Same read-out and setting: the result for `Cc1ccccc1OC1CCN(c2ncnc3c2CN(C#N)C3)CC1` [Example 184, 4-(4-(o-tolyloxy)piperidin-1-yl)-5,7-dihydro-6H-pyrrolo[3,4-d]pyrimidine-6-carbonitrile] reads 1 to 10 µM.
Consider `COc1ccccc1OC1CCN(c2ncnc3c2CN(C#N)C3)CC1` [Example 186, 4-(4-(2-methoxyphenoxy)piperidin-1-yl)-5,7-dihydro-6H-pyrrolo[3,4-d]pyrimidine-6-carbonitrile], for which the IC50 lay within 1 to 10 µM.
Consider `CC(=O)Nc1nc2c(c(-c3ccc(F)cc3)n1)CN(C#N)C2` [Example 187, N-(6-cyano-4-(4-fluorophenyl)-6,7-dihydro-5H-pyrrolo[3,4-c]pyrimidin-2-yl)acetamide], for which the IC50 was in the range of 1 to 10 µM.
For the compound `CS(=O)(=O)CCNc1nc2c(c(-c3ccccc3)n1)CN(C#N)C2` [Example 188, 2-((2-(methylsulfonyl)ethyl)amino)-4-phenyl-5,7-dihydro-6H-pyrrolo[3,4-d]pyrimidine-6-carbonitrile], the half-inhibitory concentration (IC50) lay within 1 to 10 µM.
On the same count and under the same terms, the result for `N#CN1Cc2nc(NC3CCOCC3)nc(-c3ccccc3)c2C1` [Example 189, 4-phenyl-2-((tetrahydro-2H-pyran-4-yl)amino)-5,7-dihydro-6H-pyrrolo[3,4-d]pyrimidine-6-carbonitrile] reads 10 to 30 µM; that for `CN(CCO)c1nc2c(c(-c3ccccc3)n1)CN(C#N)C2` [Example 190, 2-((2-hydroxyethyl)(methyl)amino)-4-phenyl-5,7-dihydro-6H-pyrrolo[3,4-d]pyrimidine-6-carbonitrile], 1 to 10 µM.

Staying with this assay, now noted: IC50 range, 30 min pre-incubation of enzyme and compound, read after 2 hr incubation at room temperature.
`N#CN1Cc2ncnc(N3CCC(OCc4ccccc4)CC3)c2C1` [Example 185, 4-(4-(benzyloxy)piperidin-1-yl)-5,7-dihydro-6H-pyrrolo[3,4-d]pyriimidine-6-carbonitrile] registered a half-inhibitory concentration (IC50) of 10 to 30 µM.

For the origin of these results see patent publication US10683269B2 (MISSION THERAPEUTICS LIMITED, priority 2016, dated 2020).
